This is an account of results in PubChem BioAssay AID1340 (NMMLSC, 2008).

The target in this test is Ras-related C3 botulinum toxin substrate 1 (Homo sapiens) (UniProt P63000). As to the kind of experiment: inhibition of wildtype Rac1 nucleotide loading – biochemical, multiplex bead flow cytometry, dose response (AID 1340). The following applies: GST-Rac1 beads, Bodipy-FL-GTP binding.
On to `NC(=S)N=Nc1c(O)[nH]c2ccc(F)cc12`, for which the half-maximal effective concentration (EC50) was 3.46 µM. As to `COc1ccc(C(=O)/C=C/Nc2ccc(S(=O)(=O)Nc3nc(C)cc(C)n3)cc2)cc1OC`, the EC50 is 3.12 µM. As for `COc1cc(/C=N/Nc2nnc3c(n2)[nH]c2ccccc23)ccc1O`, the half-maximal effective concentration (EC50) was 0.634 µM.

The EC50 is the concentration at which the effect is half-maximal.
